Where a SMILES comes first, the peptide text is derived from it. Bridges are numbered along the chain shown (N, C = ends). [ ]: non-standard residue; d: D form. R8 = C=CCCCCCC[C@@](C)(N)C(=O)O; Cba = N[C@@H](CC1CCC1)C(=O)O; S5 = C=CCCC[C@](C)(N)C(=O)O
Experiments:
MDMX = molecular target: T1, MDMX (Homo sapiens, UniProt O15151); assay: Experimental MDMX binding (Table 4)
T1 sequence (O15151 1-490): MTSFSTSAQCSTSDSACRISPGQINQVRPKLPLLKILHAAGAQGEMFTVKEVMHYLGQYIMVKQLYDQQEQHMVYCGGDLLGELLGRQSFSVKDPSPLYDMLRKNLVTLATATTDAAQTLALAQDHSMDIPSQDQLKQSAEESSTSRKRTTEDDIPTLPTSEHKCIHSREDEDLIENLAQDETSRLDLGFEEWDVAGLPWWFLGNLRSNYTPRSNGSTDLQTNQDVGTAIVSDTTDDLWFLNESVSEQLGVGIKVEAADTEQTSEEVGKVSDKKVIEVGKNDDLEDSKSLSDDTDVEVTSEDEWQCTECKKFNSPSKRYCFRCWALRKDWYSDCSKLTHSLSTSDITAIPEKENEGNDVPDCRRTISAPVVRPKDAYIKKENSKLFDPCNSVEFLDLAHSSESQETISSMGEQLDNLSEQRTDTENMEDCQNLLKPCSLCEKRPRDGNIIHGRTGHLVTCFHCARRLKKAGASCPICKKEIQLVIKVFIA
Text: Table 4 Prospective Testing Data. | column: Experimental MDMX / Kd (nM); Experimental MDMX / ΔΔG (kcal)

MDM2 (1-125) = molecular target: T2, MDM2 (1-125) (Homo sapiens, UniProt Q00987); assay: Mdm2 competitive fluorescence anisotropy assay; format: binding; settings: read-out: Experimental MDM2 Kd
T2 construct: Purified MDM2 (1-125) protein was titrated against
T2 sequence (Q00987 1-125): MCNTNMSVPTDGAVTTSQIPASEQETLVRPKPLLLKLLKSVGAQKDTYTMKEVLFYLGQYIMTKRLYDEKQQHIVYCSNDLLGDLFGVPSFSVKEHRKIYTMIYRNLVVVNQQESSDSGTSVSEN
Experimental: Mdm2 Competitive Fluorescence Anisotropy Assay and Kd Determination Purified MDM2 (1-125) protein was titrated against 50 nM carboxyfluorescein (FAM)-labeled 12/1 peptide (FAM-[…]-NH2). […] (4) r=r0+(rb−r0)((Kd+[L]t+[P]t)−(Kd+[L]t+[P]t)^2−4[L]t[P]t/2[L]t)
[P] is the protein concentration (MDM2), [L] is the labeled peptide concentration, r is the anisotropy measured, ro is the anisotropy of the free peptide, rb is the anisotropy of the MDM2–FAM-labeled peptide complex, Kd is the dissociation constant, [L]t is the total FAM-labeled peptide concentration, and [P]t is the total MDM2 concentration.
Apparent Kd values were determined for a variety of molecules via competitive fluorescence anisotropy experiments. Titrations were carried out with the concentration of MDM2 held constant at 250 nM and the labeled peptide at 50 nM. The competing molecules were then titrated against the complex of the FAM-labeled peptide and protein. Apparent Kd values were determined by fitting the experimental data to the equations shown below: [58, 59]. […]
[L]st and [L]t denote labeled ligand and total unlabeled ligand input concentrations, respectively. […] Kd1 is the apparent Kd for the labeled peptide used in the respective experiment, which has been experimentally determined as described in the previous paragraph. […] Readings were carried out with an Envision Multilabel Reader (PerkinElmer). […]

Compound | Kd (MDMX) [nM] | Kd (MDM2 (1-125)) [nM]
CC(=O)N[C@@H](CC(C)C)C(=O)N[C@H](C(=O)N[C@@H](Cc1ccccc1)C(=O)N[C@]1(C)CCCCCCC=CCCC[C@@](C)(C(=O)N[C@@H](CO)C(=O)N[C@@H](C)C(=O)N[C@@H](C)C(N)=O)NC(=O)[C@H](CC2CCC2)NC(=O)[C@H](CC(C)C)NC(=O)[C@H](CCC(N)=O)NC(=O)[C@H](Cc2c[nH]c3ccccc23)NC(=O)[C@H](Cc2ccc(O)cc2)NC(=O)[C@H](CCC(=O)O)NC1=O)[C@@H](C)O [WT] | 12.5 | –
CC(=O)N[C@@H](CC(C)C)C(=O)N[C@H](C(=O)N[C@@H](Cc1ccccc1)C(=O)N[C@]1(C)CCCCCCC=CCCC[C@@](C)(C(=O)N[C@@H](CO)C(=O)N[C@@H](C)C(=O)N[C@@H](C)C(N)=O)NC(=O)[C@H](CC2CCC2)NC(=O)[C@H](CC(C)C)NC(=O)[C@H](CCC(N)=O)NC(=O)[C@H](Cc2c[nH]c3ccccc23)NC(=O)[C@H](C)NC(=O)[C@H](CCC(=O)O)NC1=O)[C@@H](C)O [Y6A] (Ac-LTF[R8]EAWQL[Cba][S5]SAA-NH2; staple 4-11) | 130 | 51.5
CC(=O)N[C@@H](CC(C)C)C(=O)N[C@H](C(=O)N[C@@H](Cc1ccccc1)C(=O)N[C@]1(C)CCCCCCC=CCCC[C@@](C)(C(=O)N[C@@H](CO)C(=O)N[C@@H](C)C(=O)N[C@@H](C)C(N)=O)NC(=O)[C@H](CC2CCC2)NC(=O)[C@H](CC(C)C)NC(=O)[C@H](CCC(N)=O)NC(=O)[C@H](Cc2c[nH]c3ccccc23)NC(=O)[C@@H](Cc2ccc(O)cc2)NC(=O)[C@H](CCC(=O)O)NC1=O)[C@@H](C)O [Y6dY] | 921 | 365

Reference: article PMC6943714, “Rigorous Computational and Experimental Investigations on MDM2/MDMX-Targeted Linear and Macrocyclic Peptides” (Molecules, 2019)
